Reference: patent US11851459B2, “Methods and uses of modulators of anaphase promoting complex (APC) activity for treating cancer” (University of Saskatchewan, priority 2018, dated 2023)
“Also recorded” adds a separate entry of the source.

Legend:
APC (substrate HURP) = experiment: APC substrate westerns, Tamoxifen resistant MCF7 cells; assay type: cell-based, human
Experimental: (§1) Parental MCF7 human breast cancer cells, or cells selected for resistance to Tamoxifen, were treated with 1 or 5 uM M2I-1. Tamoxifen resistant cells were also treated with both DOX and M2I-1. Cell viability was measured using Trypan Blue staining (3 rpts). B. Protein lysates were prepared from the cells used in A. The APC target HURP was measured using antibodies against HURP. C. Trypan Blue was used to measure viability of parental and DOX resistant OSW canine lymphoma cells pretreated with 1 or 5 μM M2I-1 (18 hrs), followed by 1 μM DOX (48 hrs). Parental cells were only treated with monotherapy (3 rpts). ND, no data. D. OSW matched cells treated with the APC activator M2I-1 were prepared for APC substrate westerns E. Quantification of western protein abundance (3 rpts).
(§2) Human MCF7 breast cancer cells selected for resistance to Tamoxifen were treated with the M2I-1 activator in culture.

[1] = system: patient derived xenografted (PDX) tumor; experiment: Patient derived xenograft (4-28 PDX) triple negative breast cancer mouse model; assay type: in vivo
Excerpt: A. In vivo study of M2I-1 impact on a human patient derived xenografted breast tumor (4-28 PDX). An increased dose of M2I-1 was given to mice harboring implanted 4-28 tumor fragments ([…] i.p. injection (treatment) versus mock (DMSO) day 1, with tumor size measured every other day. B. Western analysis of apoptosis (PARP cleavage—24 kDa band) and APC substrate abundance (Cyclin B) in liver and tumor of treated and control after sacrifice on Day 8.
(§3) A mouse model for growing patient derived breast tumor cells obtained from a patient with triple negative breast cancer was developed. This patient had developed resistance to Doxorubicin. Tumors growing in these mice grow rapidly. Mice growing the patient derived xenografted (PDX) tumor were injected with various amounts of M2I-1. […] Since the APC was activated in the canines tested in this study following treatment with metformin, it was asked if metformin can directly activate the APC. Reduced APC substrate Cyclin B levels following metformin treatment in human MCF7 breast cancer cells was observed, similar to that observed when MDF7 cells express the C43-4 plasmid (see below for more on this plasmid) (FIG. 21).

MDA-MB-231 cells = experiment: Scratch assay, migration of MDA-MB-231 cells; assay type: cell-based, human
Experimental: A. An equal number of MDA-MB-231 TNBC cells were grown to confluence in 6 well plates. The cells were then treated with increasing doses of metformin (0, 1, 5 and 10 mM) and a scratch was made in the cell lawn creating a void. At the times shown the number of cell that migrated into the void were counted. The experiment was repeated twice. B. WT MDA-MB-231 cells and cells stably expressing the C43-4 plasmid were grown as in A. Control cells were left untreated, with other cells treated with the DMSO control, 1 uM DOX or 2.5 uM M2I-1. A void was created in the cell lawn and the number of cells that entered the void were scored as above. This experiment was repeated 4 times. This experiment was also repeated 4 times in an independently generated stable C43-4 cell line with similar results. The error of the mean is shown. C. WT and MDA-MB-231 cells stably expressing the C2-4B peptide plasmid were used for the scratch assay as described above. D. WT and MDA-MB-231 cells stably expressing the C13-3 peptide plasmid were used for the scratch assay as described above. The experiments in C and D were only performed once.
Assays using WT and C43-4 expressing cells have been done 4 times. Assays using C13-3 and C2-4B cells have only been conducted once. Metformin treated cells have been used twice. For scratch assays, a scratch is made down a confluent plate of cells, leaving a void. The number of cells that migrate back into the void over time is determined.

[2] = system: MCF7 breast cancer cells selected for resistance to Tamoxifen; experiment: Cell viability by Trypan Blue, Tamoxifen resistant MCF7 cells; assay type: cell-based, human
Experimental: as §1, §2

[3] = system: OSW dog lymphoma cells selected for chemotherapeutic resistance; experiment: Cell viability by Trypan Blue, DOX resistant OSW cells; assay type: cell-based, canine; details: 1 or 5 μM 18 hrs then 1 μM DOX 48 hrs
Experimental: as §1, §2

APC (substrate Cyclin B) = experiment: Cyclin B protein levels in MCF7 cells; assay type: cell-based, human; details: MCF7, 48 hrs; 1 mM metformin or transient transfection of peptide plasmid
Experimental: MCF7 breast cancer cells were treated with 1 mM metformin or transiently transfected with an APC activating peptide (C43-4) for 48 hrs, then harvested for assessment of Cyclin B protein levels. Cyclin B is an APC target.
as §3

[4] = system: multiple drug resistant breast cancer; details: cited from earlier work
drug resistant lymphoma = experiment: Canine model of drug resistant lymphoma, metformin adjunct therapy; assay type: in vivo
Experimental: Enrolled companion canines that presented to the Western College of Veterinary Medicine in Saskatoon with lymphoma that had failed CHOP therapy were enrolled in the study. Canine lymphoma is very common, almost always results in a drug resistant form, and is treated identically in humans and canines.
Each week tumor tissue was received to use for western determination of MDR markers and RNA microarrays.
One canine (canine 6) entered remission after failing all other treatment options. RNA was sampled from the MDR tumor, during metformin treatment, during tumor shrinkage and remission and during relapse and microarray analysis was performed.

wild type (WT) cells = experiment: C43-4 mutant peptides, spot dilution under temperature and UV stress, WT cells; assay type: cell-based, yeast; details: low level expression on glucose
Experimental: The cells were exposed to 5 sec of UV from a UV box prior to incubation. The plus signs define growth compared to the empty vector control.
Residues 2, 7, 8, 10, 12 and 14 of peptide C43-4 are conserved with Htz1. All of these residues were mutated to alanine (FIG. 10). Peptides that contained mutations designed to determine which amino acids were required for function were generated. These mutant peptides were grown in wild type cells and in cells that had APC10 mutated, under temperature and UV stress conditions (FIGS. 10-12).
These cells were spot diluted on Trp^− plates and grown at the temperatures shown and/or exposed to ultraviolet (UV) irradiation (FIGS. 10-12). At low level expression on glucose, some of the mutations caused stress dependent phenotypes.
• 1. Cells were cultured overnight in Trp^− 2% glucose media • 2. The growth of the cells was determined by measuring the optical density (OD) of the cells at 600 nm (OD600) • 3. Cells were diluted to OD600 of 1 with fresh culture media • 4. 100 ul of each culture was pipetted into a well of a 96 well plate • 5. 10 ul of the each starting culture was pipetted into 90 ul of water in 4 additional wells to make a 10-fold serial spot dilution • 6. 5 ul from each serial dilution was spotted onto plates containing standard growth media with either 2% glucose or 2% galactose using a multi-pipettor • 7. The plates were exposed to UV • 8. […]

Apc10 = target: T1, Apc10 (Saccharomyces cerevisiae, UniProt P53068); experiment: Yeast 2-hybrid (Y2H) assay, Apc10 bait; assay type: binding
T1 construct: expressed in transfected cells; host or cells: yeast Y2H cells
T1 sequence (P53068 1-250): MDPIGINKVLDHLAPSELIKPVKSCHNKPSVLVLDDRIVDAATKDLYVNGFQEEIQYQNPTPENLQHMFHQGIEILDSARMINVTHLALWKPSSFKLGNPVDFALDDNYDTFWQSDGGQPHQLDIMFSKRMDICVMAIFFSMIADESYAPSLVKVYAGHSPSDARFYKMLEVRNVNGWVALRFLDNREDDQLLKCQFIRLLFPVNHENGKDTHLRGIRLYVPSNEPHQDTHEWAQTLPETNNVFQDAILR
Experimental: The reverse genetic screen utilized a yeast 2-hybrid (Y2H) protocol that selected for peptides that bound to the APC subunits Apc5 or Apc10 (see FIG. 8 for APC structure), to assess whether peptide-binding might modify APC function. Peptides that bound APC subunits were then assayed for those that suppressed APC mutant defects.
A library of random small peptides were cloned into a Thioredoxin (Trx) scaffold (see FIG. 9 for Trx-peptide structure) and expressed from a galactose-inducible Y2H prey vector in cells expressing the Apc10 bait vector (the modified Apc10 is still part of the complete APC complex). Six peptides that reproducibly interacted with the Apc10 bait construct in Y2H assays were identified (FIG. 1A) and were examined further. Cells will only grow in this assay if the peptide interacts with Apc5 or Apc10.
To identify peptides that bound to either Apc5 or Apc10 proteins using a yeast 2-hybrid (Y2H) screen, random small peptides were cloned into the TrxA scaffold (library provided by R. Geyer; FIG. 9) and expressed from a galactose-inducible Y2H prey vector in cells harboring either the APC5 or APC10 genes cloned into the Y2H bait vectors (APC5/APC10 bait constructs complement APC mutant defects).
Over 100 peptides that bound either Apc5 or Apc10 were recovered from millions screened. Six peptides that reproducibly interacted with the Apc5 or Apc10 bait construct in Y2H assays were examined further. Vectors expressing these 6 peptides were transformed into WT or APC mutant cells and assessed for ts growth.

apc10Δ cells = experiment: C43-4 mutant peptides, spot dilution under temperature and UV stress, apc10Δ cells; assay type: cell-based, yeast; details: glucose or galactose
Experimental: The cells were exposed to 5 sec of UV from a UV box prior to incubation.
Expression of the WT and mutant peptides have reduced activity in apc10Δ cells (FIG. 12).
• 1. Cells were cultured overnight in Trp^− 2% glucose media • 2. The growth of the cells was determined by measuring the optical density (OD) of the cells at 600 nm (OD600) • 3. Cells were diluted to OD600 of 1 with fresh culture media • 4. 100 ul of each culture was pipetted into a well of a 96 well plate • 5. 10 ul of the each starting culture was pipetted into 90 ul of water in 4 additional wells to make a 10-fold serial spot dilution • 6. 5 ul from each serial dilution was spotted onto plates containing standard growth media with either 2% glucose or 2% galactose using a multi-pipettor • 7. The plates were exposed to UV • 8. The plates were then placed at room temperature, 30, or 37° C. for 3-7 days • 9. The plates were scanned and saved as tiff files

Compound | levels of APC substrates (APC (substrate HURP)) | tumor growth ([1]; PDX TNBC in mice, i.p. injection, various amounts) | markers of APC substrates in the tumor ([1]; western, Cyclin B, Day 8) | metastatic potential / in vitro migration (MDA-MB-231 cells) | cell killing / toxicity in combination with chemotherapy (DOX) ([2]; Tamoxifen resistant MCF7) | growth / toxicity of activator alone ([2]; Tamoxifen resistant MCF7, 1 or 5 uM, 18 hrs) | cell killing by chemotherapy only in presence of activator [3] | APC substrate Cyclin B protein levels (APC (substrate Cyclin B)) | multiple drug resistant breast cancer in vitro [4] | APC substrate RNA levels (drug resistant lymphoma; canine 6, microarray) | markers of multiple drug resistance (drug resistant lymphoma; canine tumor tissue, westerns) | remission (drug resistant lymphoma; one canine (canine 6)) | stress resistance (growth compared to empty vector) (wild type (WT) cells) | binds Apc10 in a yeast 2 hybrid assay (Apc10) | activity / toxicity of peptide in apc10Δ cells (apc10Δ cells)
CC(C)CN(CC(C)C)c1ccc(C=C2C(=O)NC(=S)NC2=O)cc1[N+](=O)[O-] [M2I-1, Mad2 Inhibitor-1] | reduced the levels of several APC substrates tested | stalled in these cells in a dose-dependent manner | positive for APC activation | inhibit the in vitro migration | only in the presence of M2I-1 were cells killed; also recorded: enhances toxicity | did not impair the growth; also recorded: not toxic | observed | – | – | – | – | – | – | – | –
CN(C)C(=N)N=C(N)N [metformin] | – | – | – | blocked | – | – | – | Reduced | prevents and reverses | reduced APC substrate RNA levels | reverse markers of multiple drug resistance | induced remission | – | – | –
NGSSHNDARVRRLTLISRLC [C43-4-3, alanine at position 8 of C43-4] | – | – | – | – | – | – | – | – | – | – | – | – | increased stress resistance further | binds Apc10 | remained toxic
